# Where a name gives a salt, the structure may show the parent alone.
# Target: T1, human β-Secretase (Homo sapiens, UniProt P56817)
# T1 construct: The soluble part of the human β-Secretase (AA 1-AA 460) was cloned; made in house
# Experiment: TR-FRET assay
# Type: biochemical
# T1 sequence (P56817 22-460): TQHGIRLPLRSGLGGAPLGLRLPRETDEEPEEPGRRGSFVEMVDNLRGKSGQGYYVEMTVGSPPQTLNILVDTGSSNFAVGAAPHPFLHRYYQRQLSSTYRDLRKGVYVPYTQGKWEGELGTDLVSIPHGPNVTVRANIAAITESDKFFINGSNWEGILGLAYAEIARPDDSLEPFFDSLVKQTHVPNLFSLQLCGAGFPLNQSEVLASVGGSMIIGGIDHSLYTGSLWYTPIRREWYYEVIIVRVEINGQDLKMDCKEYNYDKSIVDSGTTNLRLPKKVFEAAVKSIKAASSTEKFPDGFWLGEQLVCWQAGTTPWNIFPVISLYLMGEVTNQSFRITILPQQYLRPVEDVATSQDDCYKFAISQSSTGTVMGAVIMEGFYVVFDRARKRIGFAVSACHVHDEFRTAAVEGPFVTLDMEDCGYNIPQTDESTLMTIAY
row,IC50,SMILES
1,100 nM,"NC1=NC(c2ccc(F)c(-c3cccnc3F)c2)(c2ccncc2F)c2ccccc21 (stereo not drawn) [Example 76, 1-[4-Fluoro-3-(2-fluoropyridin-3-yl)phenyl]-1-(3-fluoropyridin-4-yl)-1H-isoindol-3-amine 1.5 acetate]"
2,150 nM,"N#Cc1cncc(-c2cccc(C3(c4ccncc4)N=C(N)c4ccccc43)c2)c1 (stereo not drawn) [Example 77, 5-[3-(3-Amino-1-pyridin-4-yl-1H-isoindol-1-yl)phenyl]nicotinonitrile acetate]"
3,54 nM,"COc1ccc(C2(c3cccc(-c4cccnc4)c3)N=C(N)c3ccc(F)cc32)cc1 (stereo not drawn) [Example 79, 6-Fluoro-1-(4-methoxyphenyl)-1-(3-pyridin-3-ylphenyl)-1H-isoindol-3-amine]"
4,84 nM,"COc1ccc(C2(c3cccc(-c4cccc(OC)c4)c3)N=C(N)c3ccc(F)cc32)cc1 (stereo not drawn) [Example 80, 6-Fluoro-1-(3′-methoxybiphenyl-3-yl)-1-(4-methoxyphenyl)-1H-isoindol-3-amine]"
5,26 nM,"COc1ccc(C2(c3cccc(-c4cncc(OC)c4)c3)N=C(N)c3ccc(F)cc32)cc1 (stereo not drawn) [Example 81, 6-Fluoro-1-(4-methoxyphenyl)-1-[3-(5-methoxypyridin-3-yl)phenyl]-1H-isoindol-3-amine]"
6,75 nM,"NC1=NC(c2ccncc2)(c2cccc(-c3cccnc3)c2)c2cc(F)ccc21 (stereo not drawn) [Example 83, 6-Fluoro-1-pyridin-4-yl-1-(3-pyridin-3-ylphenyl)-1H-isoindol-3-amine]"
7,94 nM,"NC1=NC(c2ccncc2)(c2cccc(-c3cncnc3)c2)c2cc(F)ccc21 (stereo not drawn) [Example 84, 6-Fluoro-1-pyridin-4-yl-1-(3-pyrimidin-5-ylphenyl)-1H-isoindol-3-amine]"
8,45 nM,"COc1cncc(-c2cccc(C3(c4ccncc4)N=C(N)c4ccc(F)cc43)c2)c1 (stereo not drawn) [Example 85, 6-Fluoro-1-[3-(5-methoxypyridin-3-yl)phenyl]-1-pyridin-4-yl-1H-isoindol-3-amine]"
9,47 nM,"NC1=NC(c2ccncc2)(c2cccc(-c3cccnc3F)c2)c2cc(F)ccc21 (stereo not drawn) [Example 86, 6-Fluoro-1-[3-(2-fluoropyridin-3-yl)phenyl]-1-pyridin-4-yl-1H-isoindol-3-amine]"
10,65 nM,"COc1ccc(C2(c3cccc(-c4cc(Cl)cc(Cl)c4)c3)N=C(N)c3ccccc32)cc1 (stereo not drawn) [Example 88, 1-(3′,5′-Dichlorobiphenyl-3-yl)-1-(4-methoxyphenyl)-1H-isoindol-3-amine acetate]"
11,413 nM,"COc1ccc(C#N)c(-c2cccc(C3(C4CC4)N=C(N)c4ccccc43)c2)c1 (stereo not drawn) [Example 91, 3′-(3-Amino-1-cyclopropyl-1H-isoindol-1-yl)-5-methoxybiphenyl-2-carbonitrile acetate]"
12,270 nM,"NC1=NC(c2cccc(-c3cncnc3)c2)(C2CC2)c2ccccc21 (stereo not drawn) [Example 92, 1-Cyclopropyl-1-(3-pyrimidin-5-ylphenyl)-1H-isoindol-3-amine acetate]"
13,4350 nM,"COc1ccc(C#N)c(-c2cccc(C3(C)N=C(N)c4ccccc43)c2)c1 (stereo not drawn) [Example 93, 3′-(3-Amino-1-methyl-1H-isoindol-1-yl)-5-methoxybiphenyl-2-carbonitrile acetate]"
14,880 nM,"CC1(c2cccc(-c3cc(Cl)cc(Cl)c3)c2)N=C(N)c2ccccc21 (stereo not drawn) [Example 94, 1-(3′,5′-Dichlorobiphenyl-3-yl)-1-methyl-1H-isoindol-3-amine hydrochloride]"
15,2010 nM,"CC1(c2cccc(-c3cncnc3)c2)N=C(N)c2ccccc21 (stereo not drawn) [Example 95, 1-Methyl-1-(3-pyrimidin-5-ylphenyl)-1H-isoindol-3-amine acetate]"
16,2200 nM,"CC1(c2cccc(-c3cccnc3F)c2)N=C(N)c2ccccc21 (stereo not drawn) [Example 96, 1-[3-(2-Fluoropyridin-3-yl)phenyl]-1-methyl-1H-isoindol-3-amine acetate]"
17,1000 nM,"CC(C)C1(c2cccc(-c3cncnc3)c2)N=C(N)c2ccccc21 (stereo not drawn) [Example 97, 1-Isopropyl-1-(3-pyrimidin-5-ylphenyl)-1H-isoindol-3-amine acetate]"
18,2000 nM,"CC1(c2cccc(-c3cncc(F)c3)c2)N=C(N)c2ccccc21 (stereo not drawn) [Example 98, 1-[3-(5-Fluoropyridin-3-yl)phenyl]-1-methyl-1H-isoindol-3-amine acetate]"
19,220 nM,"COc1ccc(F)c(-c2cccc(C3(c4ccncc4F)N=C(N)c4ccccc43)c2)c1 (stereo not drawn) [Example 99, 1-(2′-Fluoro-5′-methoxybiphenyl-3-yl)-1-(3-fluoropyridin-4-yl)-1H-isoindol-3-amine]"
20,220 nM,"COc1cccc(-c2cccc(C3(c4ccncc4F)N=C(N)c4ccccc43)c2)c1F (stereo not drawn) [Example 100, 1-(2′-Fluoro-3′-methoxybiphenyl-3-yl)-1-(3-fluoropyridin-4-yl)-1H-isoindol-3-amine]"
21,230 nM,"COc1cccc(-c2cc(C3(c4ccncc4F)N=C(N)c4ccccc43)ccc2F)c1F (stereo not drawn) [Example 101, 1-(2′,6-Difluoro-3′-methoxybiphenyl-3-yl)-1-(3-fluoropyridin-4-yl)-1H-isoindol-3-amine]"

row,IC50,SMILES
1,310 nM,"N#Cc1cncc(-c2cccc(C3(c4ccncc4F)N=C(N)c4ccccc43)c2)c1 (stereo not drawn) [Example 102, 5-{3-[3-Amino-1-(3-fluoropyridin-4-yl)-1H-isoindol-1-yl]phenyl}nicotinonitrile]"
2,110 nM,"COc1ccc(F)c(-c2cccc(C3(c4ccncc4)N=C(N)c4ccccc43)c2)c1 (stereo not drawn) [Example 103, 1-(2′-Fluoro-5′-methoxybiphenyl-3-yl)-1-pyridin-4-yl-1H-isoindol-3-amine]"
3,59 nM,"COc1cccc(-c2cccc(C3(c4ccncc4)N=C(N)c4ccccc43)c2)c1F (stereo not drawn) [Example 104, 1-(2′-Fluoro-3′-methoxybiphenyl-3-yl)-1-pyridin-4-yl-1H-isoindol-3-amine]"
4,29 nM,"NC1=NC(c2ccncc2)(c2ccc(F)c(-c3cccnc3F)c2)c2ccccc21 (stereo not drawn) [Example 105, 1-[4-Fluoro-3-(2-fluoropyridin-3-yl)phenyl]-1-pyridin-4-yl-1H-isoindol-3-amine]"
5,440 nM,"COc1ncc(C2(c3cccc(-c4cccnc4F)c3)N=C(N)c3ccccc32)cn1 (stereo not drawn) [Example 107, 1-[3-(2-Fluoropyridin-3-yl)phenyl]-1-(2-methoxypyrimidin-5-yl)-1H-isoindol-3-amine]"
6,970 nM,"COc1ncc(C2(c3cccc(-c4cncnc4)c3)N=C(N)c3ccccc32)cn1 (stereo not drawn) [Example 108, 1-(2-Methoxypyrimidin-5-yl)-1-(3-pyrimidin-5-ylphenyl)-1H-isoindol-3-amine]"
7,750 nM,"COc1ncc(C2(c3cccc(-c4cccc(OC)c4F)c3)N=C(N)c3ccccc32)cn1 (stereo not drawn) [Example 109, 1-(2′-Fluoro-3′-methoxybiphenyl-3-yl)-1-(2-methoxypyrimidin-5-yl)-1H-isoindol-3-amine]"
8,95 nM,"CCc1cc(C2(c3cccc(-c4cncnc4)c3)N=C(N)c3ccccc32)ccn1 (stereo not drawn) [Example 111, 1-(2-Ethylpyridin-4-yl)-1-(3-pyrimidin-5-ylphenyl)-1H-isoindol-3-amine]"
9,96 nM,"CCc1cc(C2(c3cccc(-c4cccnc4F)c3)N=C(N)c3ccccc32)ccn1 (stereo not drawn) [Example 112, 1-(2-Ethylpyridin-4-yl)-1-[3-(2-fluoropyridin-3-yl)phenyl]-1H-isoindol-3-amine]"
10,300 nM,"CC(C)c1cc(C2(c3cccc(-c4cncnc4)c3)N=C(N)c3ccccc32)ccn1 (stereo not drawn) [Example 114, 1-(2-Isopropylpyridin-4-yl)-1-(3-pyrimidin-5-ylphenyl)-1H-isoindol-3-amine]"
11,210 nM,"CC(C)c1cc(C2(c3cccc(-c4cccnc4F)c3)N=C(N)c3ccccc32)ccn1 (stereo not drawn) [Example 115, 1-[3-(2-Fluoropyridin-3-yl)phenyl]-1-(2-isopropylpyridin-4-yl)-1H-isoindol-3-amine]"
12,100 nM,"NC1=NC(c2cccc(-c3cccnc3F)c2)(c2ccnc(F)c2)c2ccccc21 (stereo not drawn) [Example 117, 1-(2-Fluoropyridin-4-yl)-1-[3-(2-fluoropyridin-3-yl)phenyl]-1H-isoindol-3-amine]"
13,110 nM,"COc1cc(C2(c3cccc(-c4cccnc4F)c3)N=C(N)c3ccccc32)ccn1 (stereo not drawn) [Example 119, 1-[3-(2-Fluoropyridin-3-yl)phenyl]-1-(2-methoxypyridin-4-yl)-1H-isoindol-3-amine]"
14,80 nM,"NC1=NC(c2cccc(-c3cccnc3F)c2)(c2ccnc(Cl)c2)c2ccccc21 (stereo not drawn) [Example 121, 1-(2-Chloropyridin-4-yl)-1-[3-(2-fluoropyridin-3-yl)phenyl]-1H-isoindol-3-amine]"
15,160 nM,"NC1=NC(c2cccc(-c3cncnc3)c2)(c2ccnc(Cl)c2)c2ccccc21 (stereo not drawn) [Example 122, 1-(2-Chloropyridin-4-yl)-1-(3-pyrimidin-5-ylphenyl)-1H-isoindol-3-amine]"
16,560 nM,"NC1=NC(c2cncc(F)c2)(c2cccc(-c3cccnc3F)c2)c2ccccc21 (stereo not drawn) [Example 124, 1-(5-Fluoropyridin-3-yl)-1-[3-(2-fluoropyridin-3-yl)phenyl]-1H-isoindol-3-amine]"
17,810 nM,"NC1=NC(c2cncc(F)c2)(c2cccc(-c3cncnc3)c2)c2ccccc21 (stereo not drawn) [Example 125, 1-(5-Fluoropyridin-3-yl)-1-(3-pyrimidin-5-ylphenyl)-1H-isoindol-3-amine]"
18,33 nM,"COc1ccc(C2(c3ccc(F)c(-c4cncnc4)c3)N=C(N)c3ccccc32)cc1C (stereo not drawn) [Example 127, 1-(4-Fluoro-3-pyrimidin-5-ylphenyl)-1-(4-methoxy-3-methylphenyl)-1H-isoindol-3-amine]"
19,40 nM,"COc1ccc(C2(c3ccc(F)c(-c4cccnc4F)c3)N=C(N)c3ccccc32)cc1C (stereo not drawn) [Example 128, 1-[4-Fluoro-3-(2-fluoropyridin-3-yl)phenyl]-1-(4-methoxy-3-methylphenyl)-1H-isoindol-3-amine]"
20,85 nM,"NC1=NC(c2ccncc2)(c2cccc(-c3cncnc3)c2)c2cc(Cl)ccc21 (stereo not drawn) [Example 129, 6-Chloro-1-pyridin-4-yl-1-(3-pyrimidin-5-ylphenyl)-1H-isoindol-3-amine]"
21,1300 nM,"NC1=NC(c2ccc(C(F)(F)F)nc2)(c2cccc(-c3cncnc3)c2)c2ccccc21 (stereo not drawn) [Example 130, 1-(3-Pyrimidin-5-ylphenyl)-1-[6-(trifluoromethyl)pyridin-3-yl]-1H-isoindol-3-amine 0.66 acetate]"
